Laboratory results from US11485725B2, “Derivatives of piperlongumine and uses thereof” (Auransa Inc., priority 2017, dated 2022).
pIC50: −log10 of the molar value. Like-named read-outs stand apart in the source and are kept apart here.

How the values were obtained:
MOLP-8 = assay: In vitro cell viability assay (CellTiter-Glo, ATP levels), multiple myeloma cells; assay type: cell-based; settings: 7-day incubation, CellTiter-Glo, average values, read-out: MOLP-8 IC50
Experimental: (§1) In Vitro Cell Viability Assay
(§2) The present disclosure provides a method for inhibiting cell viability, as measured by ATP levels. The method for inhibiting cell viability is drawn to contacting various cancer cells with the compounds described herein at various concentrations. The cancer cell lines were maintained in culture conditions at 37° C. in an atmosphere of 5% CO2 in air. The cells growing in an exponential growth phase were harvested and counted for plating. Compounds were incubated in two cancer cell types representing multiple myeloma (MOLP-8) and triple negative breast cancer (DU4475). Cells were plated at an optimized cell numbers per well in 96-well plates and allowed to attach to the plates overnight at approximately 80% confluency.
(§3) After addition of compounds, plates were incubated for 7-day. At the end of incubation period on day 8, media was removed and replaced with a solution of CellTiter-Glo™ reagent (Promega®) according to protocol. Luminescence was read using an EnVision® multi-label plate reader (Perkin-Elmer®), and signal intensity was calculated relative to positive and negative control wells. Cisplatin was included as the positive control. A dose-response calculation was performed in a non-linear regression fit and by using the Hill equation to calculate a concentration-response curve and 50% inhibitory concentration (IC50) values for each compound.
(§4) The average IC50 values of compounds 1-15 in multiple myeloma (MOLP-8) and triple negative breast cancer (DU4475) cells are shown in Table 1.

DU4475 = assay: In vitro cell viability assay (CellTiter-Glo, ATP levels), triple negative breast cancer cells; assay type: cell-based; settings: 7-day incubation, CellTiter-Glo, average values, read-out: DU4475 IC50
Experimental: as §1, §2, §3, §4

[1] = system: HCT116 (colorectal cancer) cells; assay: Resazurin-based cell viability assay using colorectal cancer cells
Experimental: Determination of Potency of Compounds in Cell Viability Assay Using Colorectal Cancer Cells
The blue dye resazurin-based assay was performed to determine cell viability and used according to manufacture protocol (Sigma®). HCT116 (colorectal cancer) cells were seeded in the DMEM medium (10% FBS serum). Approximately 1,500 cells were plated per well in 96 well plates. Cells were allowed to grow at 37° C. for 24 hr in 5% CO2 environment in a humidified incubator. Serially diluted compounds (100 μL) were added to the culture plate after 24 hr. After addition of compounds, plates were incubated for 72 hr. Experiment was terminated at the designated incubation time by replacing the medium with 100 μL of 1 mM of resazurin (Sigma®) prepared in culture medium (DMEM) and were further incubated in culture conditions for 4-6 hours. Fluorescence was recorded using a multimodal plate reader (Biotek Synergy Neo®) at an excitation wavelength of 535 nm and emission wavelength of 590 nm to obtain relative fluorescence units. Data analysis was done by subtracting the background fluorescence (medium blank) value from each reading and then normalizing with the vehicle control (DMSO treated cells) to obtain percent survival/proliferation. IC50 was calculated from percent survival values using GraphPad Prism® (see Table 1).

[2] = Homo sapiens, HCT-116, 72 hr incubation

| SMILES | pIC50 (MOLP-8; Homo sapiens, MOLP-8, 168 h) | pIC50 (DU4475; Homo sapiens, DU-4475, 168 h) | pIC50 [1, 2] | pIC50 (MOLP-8) | pIC50 (DU4475) | pIC50 ([1]; 72 hr incubation, read-out: HCT 116 IC50) |
| --- | --- | --- | --- | --- | --- | --- |
| Cc1noc(/C=C/C(=O)N2CCC=CC2=O)n1 [Compound 16, (E)-1-(3-(3-methyl-1,2,4-oxadiazol-5-yl)acryloyl)-5,6-dihydropyridin-2(1H)-one] | 6.18 | 6.12 | 6.02 |  |  |  |
| Cc1noc(/C=C/C(=O)N2CCCC=CC2=O)n1 [Compound 17, (E)-1-(3-(3-methyl-1,2,4-oxadiazol-5-yl)acryloyl)-1,5,6,7-tetrahydro-2H-azepin-2-one] | 6.48 | 5.94 | 5.23 |  |  |  |
| O=C1C=CCCN1C(=O)/C=C/C1CC1 [Compound 18, (E)-1-(3-cyclopropylacryloyl)-5,6-dihydropyridin-2(1H)-one] | 6.17 | 5.69 | 4.85 |  |  |  |
| CC(C)(C)OC(=O)N1CCC(/C=C/C(=O)N2CCC=CC2=O)CC1 [Compound 19, tert-butyl (E)-4-(3-oxo-3-(6-oxo-3,6-dihydropyridin-1(2H)-yl)prop-1-en-1-yl)piperidine-1-carboxylate] | 6.39 | 6.09 | 5.71 |  |  |  |
| O=C1C=CCCN1C(=O)/C=C/C1CCNCC1 [Compound 20, (E)-1-(3-(piperidin-4-yl)acryloyl)-5,6-dihydropyridin-2(1H)-one] | 6.16 | 5.88 | 5.67 |  |  |  |
| O=C1C=CCCN1C(=O)/C=C/c1ccc2c(n1)OCCO2 [Compound 21, (E)-1-(3-(2,3-dihydro-[1,4]dioxino[2,3-b]pyridin-6-yl)acryloyl)-5,6-dihydropyridin-2(1H)-one] | 6.17 | 6.28 | 5.50 |  |  |  |
| CC1(/C=C/C(=O)N2CCC=CC2=O)CCCCC1 [Compound 22, (E)-1-(3-(1-methylcyclohexyl)acryloyl)-5,6-dihydropyridin-2(1H)-one] | 5.66 | 5.74 | 5.41 |  |  |  |
| O=C1C=CCCN1C(=O)/C=C/c1ccc2c(n1)OCCO2 [Compound 23, (E)-1-(3-(2,3-dihydro-[1,4]dioxino[2,3-b]pyridin-6-yl)acryloyl)-5,6-dihydropyridin-2(1H)-one] |  |  |  | 6.15 | 6.30 | 5.50 |
| O=C1C=CCCN1C(=O)/C=C/c1cnc2c(c1)OCCO2 [Compound 24, (E)-1-(3-(2,3-dihydro-[1,4]dioxino[2,3-b]pyridin-7-yl)acryloyl)-5,6-dihydropyridin-2(1H)-one] | 6.49 | 6.17 | 5.72 |  |  |  |
| COc1cc(/C=C/C(=O)N2CC(O)C=CC2=O)cc2c1OCCO2 (stereo not drawn) [Compound 25, 5-hydroxy-1-[(2E)-3-(8-methoxy-2,3-dihydro-1,4-benzodioxin-6-yl)prop-2-enoyl]-5,6-dihydropyridin-2(1H)-one] | 6.43 | 5.75 | 5.34 |  |  |  |
| O=C1C=CCCCN1C(=O)/C=C/c1cnc2c(c1)OCCO2 [Compound 26, (E)-1-(3-(2,3-dihydro-[1,4]dioxino[2,3-b]pyridin-7-yl)acryloyl)-6,7-dihydro-1H-azepin-2(5H)-one] | 6.77 | 6.20 | 5.47 |  |  |  |
| O=C1C=CCCN1C(=O)/C=C/c1cccnn1 [Compound 27, (E)-1-(3-(pyridazin-3-yl)acryloyl)-5,6-dihydropyridin-2(1H)-one] | 6.12 | 6.02 | 5.72 |  |  |  |
| CC(C)(C)/C=C/C(=O)N1CCC=CC1=O [Compound 28, (E)-1-(4,4-dimethylpent-2-enoyl)-5,6-dihydropyridin-2(1H)-one] | 6.31 | 5.86 | 5.45 |  |  |  |
| O=C1C=CCCN1C(=O)C=C(c1ccccc1)c1ccccc1 [Compound 29, 1-(3,3-diphenylacryloyl)-5,6-dihydropyridin-2(1H)-one] | 5.57 | 5.76 | 5.19 |  |  |  |
| COc1cc(/C=C/C(=O)N2CC(C)(C)C=CC2=O)cc2c1OCCO2 [Compound 30, (E)-1-(3-(8-methoxy-2,3-dihydrobenzo[b][1,4]dioxin-6-yl)acryloyl)-5,5-dimethyl-5,6-dihydropyridin-2(1H)-one] | 5.55 | 5.26 | 5.00 |  |  |  |
| O=C1C=CCCCN1C(=O)/C=C/c1ccc2c(n1)OCCO2 [Compound 31, (E)-1-(3-(2,3-dihydro-[1,4]dioxino[2,3-b]pyridin-6-yl)acryloyl)-1,5,6,7-tetrahydroazepin-2-one] | 6.57 | 6.25 | 5.81 |  |  |  |
| O=C1C=CC(O)CN1C(=O)/C=C/c1ncccn1 (stereo not drawn) [Compound 32, 5-hydroxy-1-[(2E)-3-(pyrimidin-2-yl)prop-2-enoyl]-5,6-dihydropyridin-2(1H)-one] | 6.42 | 5.83 | 5.14 |  |  |  |
| CC1(C)C=CC(=O)N(C(=O)/C=C/c2ncccn2)C1 [Compound 33, (E)-5,5-dimethyl-1-(3-(pyrimidin-2-yl)acryloyl)-5,6-dihydropyridin-2(1H)-one] | 6.25 | 5.89 | 5.39 |  |  |  |
| O=C1C=CCCN1C(=O)/C=C/C1CCOCC1 [Compound 34, 1-[(2E)-3-(tetrahydro-2H-pyran-4-yl)prop-2-enoyl]-5,6-dihydropyridin-2(1H)-one] | 6.29 | 5.84 | 5.42 |  |  |  |
| O=C(/C=C/c1ncccn1)N1CCC=C(Cl)C1=O [Compound 35, (E)-3-chloro-1-(3-(pyrimidin-2-yl)acryloyl)-5,6-dihydropyridin-2(1H)-one] | 7.10 | 6.68 | 6.42 |  |  |  |
| O=C1C=CC(F)CN1C(=O)/C=C/c1ncccn1 (stereo not drawn) [Compound 37, (E)-5-fluoro-1-(3-(pyrimidin-2-yl)acryloyl)-5,6-dihydropyridin-2(1H)-one] | 6.96 | 6.38 | 6.06 |  |  |  |
| O=C1C=CCCCN1C(=O)/C=C/C1CCNCC1 [Compound 38, (E)-1-(3-(piperidin-4-yl)acryloyl)-6,7-dihydro-1H-azepin-2(5H)-one] | 6.64 | 5.99 | 6.04 |  |  |  |
| O=C(/C=C/c1ncccn1)N1CCC=C(Br)C1=O [Compound 40, 3-bromo-1-[(2E)-3-(pyrimidin-2-yl)prop-2-enoyl]-5,6-dihydropyridin-2(1H)-one] | 7.40 | 7.00 | 6.44 |  |  |  |
| CC1C=CC(=O)N(C(=O)/C=C/c2ncccn2)C1 (stereo not drawn) [Compound 43, (E)-5-methyl-1-(3-(pyrimidin-2-yl)acryloyl)-5,6-dihydropyridin-2(1H)-one] | 6.55 | 6.28 | 5.90 |  |  |  |
| O=C1C=CCCN1C(=O)/C=C/C1CCN(CC2CC2)CC1 [Compound 44, (E)-1-(3-(1-(cyclopropylmethyl)piperidin-4-yl)acryloyl)-5,6-dihydropyridin-2(1H)-one] | 6.31 | 5.98 | 5.87 |  |  |  |
| O=C1C=CCCN1C(=O)/C=C/C1CCN(C2COC2)CC1 [Compound 45, (E)-1-(3-(1-(oxetan-3-yl)piperidin-4-yl)acryloyl)-5,6-dihydropyridin-2(1H)-one] | 6.14 | 5.87 | 5.49 |  |  |  |
| Cn1ccc(/C=C/C(=O)N2CCC=CC2=O)n1 [Compound 53, 1-[(2E)-3-(1-methyl-1H-pyrazol-3-yl)prop-2-enoyl]-5,6-dihydropyridin-2(1H)-one] | 6.25 | 6.14 | 5.67 |  |  |  |
